Test system: Male Wistar rats
Experiment: Enteropooling effect (intestinal fluid volume) in fasted rats
Type: in vivo, rat
Details: intestinal fluid volume 30 min after administration, dose yielding a 50% increase relative to vehicle control; for ED50: Rattus norvegicus, 0.5 h
Experimental: Male Wistar rats (Crj Wistar Rat, body weight: 180-200 g) were used. Animals were fasted for 24 hours with free access to water. 5 mL/kg of distilled water containing the compound 5, PGE1 or PGE2 was orally administrated (p.o.), or 2 mL/kg of physiological saline containing the compound 5 was injected intravenously (i.v.) to the animals. Thirty minutes after the administration, the animals were euthanized by cervical dislocation, and the abdominal cavity was opened surgically. The intestinal fluid was collected and its volume was measured. The dose of test substance yielding a 50% increase in intestinal fluid volume relative to the control group, which was received the vehicle only, was defined as the ED50 value.

For CCCCC[C@H](O)/C=C/[C@H]1[C@H](O)CC(=O)[C@@H]1CCCCCCC(=O)O [PGE1], the “Enteropooling ED50” value (p.o. in distilled water) was 420 µg/kg.

CCCCC(F)(F)C(O)CC[C@H]1[C@H](O)CC(=O)[C@@H]1CCCCCCC(=O)O (stereo partly shown) [Compound 5, 13,14-dihydro-15RS-hydroxy-16,16-difluoro-PGE1] gave an ED50 (iv, i.v. in physiological saline) of 0.88 µg/kg and an ED50 (po, p.o. in distilled water) of 0.6 µg/kg.

With CCCCC[C@H](O)/C=C/[C@H]1[C@H](O)CC(=O)[C@@H]1C/C=C\CCCC(=O)O [PGE2] the “Enteropooling ED50” value (p.o. in distilled water) was 130 µg/kg.

Source: patent publication US7459583B2, “Method for providing a cathartic effect” (Sucampo AG, priority 2001, dated 2008)
